Laboratory results: ChEMBL document CHEMBL5375995, “Discovery and Mechanistic Study of Novel Mycobacterium tuberculosis ClpP1P2 Inhibitors” (J Med Chem, 2023)
Active and inactive are the calls of the source. The calls are words filed in the database; no cut-off is given here.

What was measured:
[1] = target: ClpP1P2 (Mycobacterium tuberculosis (strain ATCC 25618 / H37Rv), UniProt P9WPC3+P9WPC5, S72T); test: Inhibition of Mtb ClpP1 S72T mutant expressed in Escherichia coli BL21(DE3)
[2] = target: ClpP1P2 (Mycobacterium tuberculosis (strain ATCC 25618 / H37Rv), UniProt P9WPC3+P9WPC5, M95L); test: Inhibition of Mtb ClpP1 M95L mutant expressed in Escherichia coli BL21(DE3)
[3] = test system: ClpP1P2 (Mycobacterium tuberculosis (strain ATCC 25618 / H37Rv)), P9WPC5+P9WPC3 [R119E]; test: Inhibition of Mtb ClpP1 R119E mutant expressed in Escherichia coli BL21(DE3)
[4] = target: ClpP1P2 (Mycobacterium tuberculosis (strain ATCC 25618 / H37Rv), UniProt P9WPC3+P9WPC5, W174A); test: Inhibition of Mtb ClpP1 W174A mutant expressed in Escherichia coli BL21(DE3)
[5] = target: ClpP1P2 (Mycobacterium tuberculosis (strain ATCC 25618 / H37Rv), UniProt P9WPC3+P9WPC5, R119S); test: Inhibition of Mtb ClpP1 R119S mutant expressed in Escherichia coli BL21(DE3)
[6] = target: ClpP1P2 (Mycobacterium tuberculosis (strain ATCC 25618 / H37Rv), UniProt P9WPC3+P9WPC5, E149R); test: Inhibition of Mtb ClpP1 E149R mutant expressed in Escherichia coli BL21(DE3)
[7] = test system: ClpP1P2 (Mycobacterium tuberculosis (strain ATCC 25618 / H37Rv)), P9WPC5+P9WPC3 [M95A]; test: Inhibition of Mtb ClpP1 M95A mutant expressed in Escherichia coli BL21(DE3)
[8] = test system: ClpP1P2 (Mycobacterium tuberculosis (strain ATCC 25618 / H37Rv)), P9WPC5+P9WPC3 [M95Q]; test: Inhibition of Mtb ClpP1 M95Q mutant expressed in Escherichia coli BL21(DE3)
[9] = target: ClpP1P2 (Mycobacterium tuberculosis (strain ATCC 25618 / H37Rv), UniProt P9WPC3+P9WPC5, I146T); test: Inhibition of Mtb ClpP1 I146T mutant expressed in Escherichia coli BL21(DE3)
[10] = target: ClpP1P2 (Mycobacterium tuberculosis (strain ATCC 25618 / H37Rv), UniProt P9WPC3+P9WPC5, E149T); test: Inhibition of Mtb ClpP1 E149T mutant expressed in Escherichia coli BL21(DE3)
[11] = test system: ClpP1P2 (Mycobacterium tuberculosis (strain ATCC 25618 / H37Rv)), P9WPC5+P9WPC3 [I146V]; test: Inhibition of Mtb ClpP1 I146V mutant expressed in Escherichia coli BL21(DE3)
[12] = target: ClpP1P2 (Mycobacterium tuberculosis (strain ATCC 25618 / H37Rv), UniProt P9WPC3+P9WPC5, E149K); test: Inhibition of Mtb ClpP1 E149K mutant expressed in Escherichia coli BL21(DE3)
[13] = test system: ClpP1P2 (Mycobacterium tuberculosis (strain ATCC 25618 / H37Rv)), P9WPC5+P9WPC3 [I71V]; test: Inhibition of Mtb ClpP1 I71V mutant expressed in Escherichia coli BL21(DE3)
[14] = Selectivity index, ratio of IC50 for full-length Staphylococcus aureus ClpP complex/Escherichia coli ClpX delta N mutant (62 to 425 residues) expressed in Escherichia coli BL21(DE3) using FITC-casein as substrate to IC50 for N-terminal His6-SUMO-tagged Mtb ClpP1 (7 to 200 residues)/ClpP2 (13 to 214 residues) complex expressed in Escherichia coli BL21(DE3)
[15] = target: ClpP1P2 (Mycobacterium tuberculosis (strain ATCC 25618 / H37Rv), UniProt P9WPC3+P9WPC5, M95W); test: Inhibition of Mtb ClpP1 M95W mutant expressed in Escherichia coli BL21(DE3)
[16] = target: ClpP1P2 (Mycobacterium tuberculosis (strain ATCC 25618 / H37Rv), UniProt P9WPC3+P9WPC5, H117N); test: Inhibition of Mtb ClpP1 H117N mutant expressed in Escherichia coli BL21(DE3)
[17] = target: ClpP1P2 (Mycobacterium tuberculosis (strain ATCC 25618 / H37Rv), UniProt P9WPC3+P9WPC5, E149Q); test: Inhibition of Mtb ClpP1 E149Q mutant expressed in Escherichia coli BL21(DE3)
[18] = target: ClpP1P2 (Mycobacterium tuberculosis (strain ATCC 25618 / H37Rv), UniProt P9WPC3+P9WPC5, I146L); test: Inhibition of Mtb ClpP1 I146L mutant expressed in Escherichia coli BL21(DE3)
[19] = test system: ClpP1P2 (Mycobacterium tuberculosis (strain ATCC 25618 / H37Rv)), P9WPC5+P9WPC3 [R119Q]; test: Inhibition of Mtb ClpP1 R119Q mutant expressed in Escherichia coli BL21(DE3)
[20] = test system: ClpP1P2 (Mycobacterium tuberculosis (strain ATCC 25618 / H37Rv)), P9WPC5+P9WPC3 [I146M]; test: Inhibition of Mtb ClpP1 I146M mutant expressed in Escherichia coli BL21(DE3)
[21] = target: ClpP1P2 (Mycobacterium tuberculosis (strain ATCC 25618 / H37Rv), UniProt P9WPC3+P9WPC5, H117A); test: Inhibition of Mtb ClpP1 H117A mutant expressed in Escherichia coli BL21(DE3)
[22] = test system: ClpP1P2 (Mycobacterium tuberculosis (strain ATCC 25618 / H37Rv)), P9WPC5+P9WPC3 [M95S]; test: Inhibition of Mtb ClpP1 M95S mutant expressed in Escherichia coli BL21(DE3)
[23] = test system: ClpP1P2 (Mycobacterium tuberculosis (strain ATCC 25618 / H37Rv)), P9WPC5+P9WPC3 [W174F]; test: Inhibition of Mtb ClpP1 W174F mutant expressed in Escherichia coli BL21(DE3)
[24] = target: ClpP1P2 (Mycobacterium tuberculosis (strain ATCC 25618 / H37Rv), UniProt P9WPC3+P9WPC5, Q142H); test: Inhibition of Mtb ClpP1 Q142H mutant expressed in Escherichia coli BL21(DE3)
[25] = target: ClpP1P2 (Mycobacterium tuberculosis (strain ATCC 25618 / H37Rv), UniProt P9WPC3+P9WPC5, Q142R); test: Inhibition of Mtb ClpP1 Q142R mutant expressed in Escherichia coli BL21(DE3)
[26] = test system: ClpP1P2 (Mycobacterium tuberculosis (strain ATCC 25618 / H37Rv)), P9WPC5+P9WPC3 [M75A]; test: Inhibition of Mtb ClpP1 M75A mutant expressed in Escherichia coli BL21(DE3)
[27] = target: ClpP1P2 (Mycobacterium tuberculosis (strain ATCC 25618 / H37Rv), UniProt P9WPC3+P9WPC5, W174I); test: Inhibition of Mtb ClpP1 W174I mutant expressed in Escherichia coli BL21(DE3)
[28] = test system: ClpP1P2 (Mycobacterium tuberculosis (strain ATCC 25618 / H37Rv)), P9WPC5+P9WPC3 [E149L]; test: Inhibition of Mtb ClpP1 E149L mutant expressed in Escherichia coli BL21(DE3)
[29] = test system: ClpP1P2 (Mycobacterium tuberculosis (strain ATCC 25618 / H37Rv)), P9WPC5+P9WPC3 [M75L]; test: Inhibition of Mtb ClpP1 M75L mutant expressed in Escherichia coli BL21(DE3)
[30] = target: ClpP1P2 (Mycobacterium tuberculosis (strain ATCC 25618 / H37Rv), UniProt P9WPC3+P9WPC5, I71F); test: Inhibition of Mtb ClpP1 I71F mutant expressed in Escherichia coli BL21(DE3)
[31] = test system: ClpP1P2 (Mycobacterium tuberculosis (strain ATCC 25618 / H37Rv)), P9WPC5+P9WPC3 [M75F]; test: Inhibition of Mtb ClpP1 M75F mutant expressed in Escherichia coli BL21(DE3)

COc1cc2c(Oc3ccc4[nH]c(C)cc4c3F)ncnc2cc1OCCCN1CCCC1 [CEDIRANIB]
IC50 [1]: > 54.5 µM
IC50 [2]: 23.7 µM
inhibition [3]: inactive
IC50 [4]: 20.2 µM
IC50 [5]: 42.2 µM
IC50 [6]: 41.8 µM
inhibition [7]: Active
inhibition [8]: inactive
IC50 [9]: 5.1 µM
IC50 [10]: 7.6 µM
inhibition [11]: inactive
IC50 [12]: > 100 µM
inhibition [13]: inactive
Ratio IC50 [14]: 9.6
IC50 [15]: 7.5 µM
IC50 [16]: > 50 µM
IC50 [17]: 6.3 µM
IC50 [18]: 9.7 µM
inhibition [19]: inactive
inhibition [20]: inactive
IC50 [21]: 4.4 µM
inhibition [22]: inactive
inhibition [23]: inactive
IC50 [24]: 14.4 µM
IC50 [25]: 9.5 µM
inhibition [26]: Active
IC50 [27]: 12.8 µM
inhibition [28]: inactive
inhibition [29]: inactive
IC50 [30]: 3.4 µM
inhibition [31]: inactive
